Results taken from patent US20240109937A1, “BINDING PEPTIDES AND USES THEREOF” (The Johns Hopkins University, priority 2021, published 2024).
Read-outs that look alike come from different tables or passages of the source. Bridge positions count the residues as written; N and C are the ends. Square brackets hold non-standard residues; d marks the D form. Peptide text beside a SMILES is read from it. hArg = N=C(N)NCCCC[C@H](N)C(=O)O

Experiments:
[1] = target: T1, CAPN1 (Mus musculus, UniProt O35350); test: Calpain activity assay (Suc-LLVY-AMC cleavage) in HL-1 cells under Ca2+ overload; format: cell-based
T1 construct: endogenous in cells; host or cells: HL-1 cardiomyocytes
T1 sequence (O35350 1-713): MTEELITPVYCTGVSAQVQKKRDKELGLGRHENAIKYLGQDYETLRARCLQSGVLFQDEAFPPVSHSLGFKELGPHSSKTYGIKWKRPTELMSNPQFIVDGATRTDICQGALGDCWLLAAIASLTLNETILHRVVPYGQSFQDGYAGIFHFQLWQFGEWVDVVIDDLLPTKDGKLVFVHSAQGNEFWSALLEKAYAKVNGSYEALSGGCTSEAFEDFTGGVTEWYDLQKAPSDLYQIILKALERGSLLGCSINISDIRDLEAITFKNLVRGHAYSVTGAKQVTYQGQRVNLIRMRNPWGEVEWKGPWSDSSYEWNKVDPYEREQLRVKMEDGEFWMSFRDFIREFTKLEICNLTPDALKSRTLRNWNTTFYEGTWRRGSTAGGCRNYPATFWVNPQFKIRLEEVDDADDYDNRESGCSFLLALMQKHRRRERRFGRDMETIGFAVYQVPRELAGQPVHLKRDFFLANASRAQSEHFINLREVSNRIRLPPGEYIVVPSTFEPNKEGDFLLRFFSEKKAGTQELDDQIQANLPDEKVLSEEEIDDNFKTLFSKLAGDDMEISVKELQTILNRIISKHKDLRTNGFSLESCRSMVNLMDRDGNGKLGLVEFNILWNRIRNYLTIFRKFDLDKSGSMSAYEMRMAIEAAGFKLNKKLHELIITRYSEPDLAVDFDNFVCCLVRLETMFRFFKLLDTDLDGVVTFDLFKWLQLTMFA
T1 sequence (O88456 1-268 partner): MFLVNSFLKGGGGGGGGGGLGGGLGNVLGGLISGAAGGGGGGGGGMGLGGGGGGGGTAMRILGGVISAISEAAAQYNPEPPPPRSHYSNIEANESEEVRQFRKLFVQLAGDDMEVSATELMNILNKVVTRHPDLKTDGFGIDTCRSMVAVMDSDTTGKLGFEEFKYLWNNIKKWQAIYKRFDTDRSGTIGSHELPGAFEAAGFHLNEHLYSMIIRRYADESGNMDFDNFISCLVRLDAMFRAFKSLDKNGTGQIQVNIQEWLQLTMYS
Protocol: Calcium (Ca^2+) Overload Protocol: Rapid and sustained intracellular Ca^2+ overload was obtained by adding the Ca^2+-ionophore, calcimycin (1 μM), to HL-1 cells incubated for 10 min in HBS KV medium (1.26 mM CaCl2, 0.81 mM MgSO4, 0.44 mM KH2PO4, 142 mM KCl, 0.27 mM K2HPO4, 5.55 mM D-glucose, 1 mM Na3VO4, 20 mM Hepes pH 7.4). To monitor intracellular Ca^2+ variations, HL-1 cells were loaded with 5 μM Fluo-4 FF AM (Molecular Probes) in HBS Na (Sigma) for 30 min before the media was replaced with HBS KV. […] Calpain (CAPN) Activity Assay: […] HL-1 cells were grown in 24-well plates and incubated for 30 min in HBS Na (Sigma) with 25 μM Suc-LLVY-AMC (SEQ ID NO: 81) and 0.01% pluronic F127 (Molecular Probes) before treatment protocols. […] CAPN activity was inhibited via the addition of either calpeptin (Tocris) or PD150606 (Calbiochem) in the incubation medium.

[2] = system: HL-1 cells; test: Cell viability assay (LDH release) in HL-1 cells under Ca2+ overload; format: cell-based, mouse
Protocol: Calcium (Ca^2+) Overload Protocol: Rapid and sustained intracellular Ca^2+ overload was obtained by adding the Ca^2+-ionophore, calcimycin (1 μM), to HL-1 cells incubated for 10 min in HBS KV medium (1.26 mM CaCl2, 0.81 mM MgSO4, 0.44 mM KH2PO4, 142 mM KCl, 0.27 mM K2HPO4, 5.55 mM D-glucose, 1 mM Na3VO4, 20 mM Hepes pH 7.4). To monitor intracellular Ca^2+ variations, HL-1 cells were loaded with 5 μM Fluo-4 FF AM (Molecular Probes) in HBS Na (Sigma) for 30 min before the media was replaced with HBS KV. […] Cell Viability Assay: HL-1 plasma membrane integrity was assessed by measuring lactate dehydrogenase (LDH) release in the culture supernatant. An enzymatic assay evaluated LDH activity. Samples of the cell-free culture supernatant were collected at indicated times in Figures/Figure Legends, while cells were lysed in 1% (w/v) Triton X-100 at the end of each experiment to estimate the remaining cellular content of LDH. The LDH activity at each time point was expressed as a percentage of total LDH activity.

[3] = target: T2, PPIA (Homo sapiens, UniProt P62937); conditions: read-out: KD, binds and sequesters cytosolic PPIA; cited from earlier work
T2 sequence (P62937 whole entry, species assumed): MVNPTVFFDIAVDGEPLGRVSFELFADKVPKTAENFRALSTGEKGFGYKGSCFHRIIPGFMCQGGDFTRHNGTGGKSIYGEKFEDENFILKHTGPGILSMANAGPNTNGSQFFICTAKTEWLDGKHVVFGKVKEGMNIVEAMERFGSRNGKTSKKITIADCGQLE

[4] = target: T2, PPIA; test: KD determination of cyclic peptides derived from Formula (I); format: binding
[5] = system: HL-1 cells; test: Intracellular Ca2+ (Fluo4 FF fluorescence) in HL-1 cells; format: cell-based, mouse; conditions: Calcimycin 1 μM in HBS KV medium
Protocol: (§1) Calcium (Ca^2+) Overload Protocol: Rapid and sustained intracellular Ca^2+ overload was obtained by adding the Ca^2+-ionophore, calcimycin (1 μM), to HL-1 cells incubated for 10 min in HBS KV medium (1.26 mM CaCl2, 0.81 mM MgSO4, 0.44 mM KH2PO4, 142 mM KCl, 0.27 mM K2HPO4, 5.55 mM D-glucose, 1 mM Na3VO4, 20 mM Hepes pH 7.4). To monitor intracellular Ca^2+ variations, HL-1 cells were loaded with 5 μM Fluo-4 FF AM (Molecular Probes) in HBS Na (Sigma) for 30 min before the media was replaced with HBS KV.

[6] = target: T1, CAPN1; test: Western blot of CAPN1 in purified mitochondria from HL-1 cells under Ca2+ overload; format: cell-based; conditions: Ca2+ overload (HBS KVC), calpeptin 50 μM, PD150606 10 μM
Protocol: as §1, with “KV. The fluorescence was recorded using a fluorimeter plate reader (Fluoroskan Ascent Labsystem) at wavelength settings of 485/530 nm for excitation/emission, respectively.” for “KV.”
Mitochondria Isolation Protocol: Mitochondria were isolated from HL-1 cells in percoll density gradient. Briefly, 30×10^6 adherent cells were harvested with Trypsin/EDTA, centrifuged at 500×g for 10 min, washed in buffer A (100 mM sucrose, 1 mM EGTA, 20 mM MOPS, pH 7.4, and 1 mg/mL BSA) before cell disruption with a Dounce homogenizer. The suspension was centrifuged twice at 500× g for 5 min and the resulting supernatant at 10,000×g for 10 min at 4° C. The pellet was re-suspended in buffer B (300 mM sucrose, 1 mM EGTA, 20 mM MOPS pH 7.4, 1 mg/mL BSA), and the homogenate was layered on a two-phase (25% and 40%) percoll density gradient. […]

[7] = system: HL-1 cells; test: Mitochondrial membrane potential (JC-1) assay in HL-1 cells; format: cell-based, mouse; conditions: Calcimycin 1 μM in HBS KV medium
Protocol: Calcium (Ca^2+) Overload Protocol: Rapid and sustained intracellular Ca^2+ overload was obtained by adding the Ca^2+-ionophore, calcimycin (1 μM), to HL-1 cells incubated for 10 min in HBS KV medium (1.26 mM CaCl2, 0.81 mM MgSO4, 0.44 mM KH2PO4, 142 mM KCl, 0.27 mM K2HPO4, 5.55 mM D-glucose, 1 mM Na3VO4, 20 mM Hepes pH 7.4). To monitor intracellular Ca^2+ variations, HL-1 cells were loaded with 5 μM Fluo-4 FF AM (Molecular Probes) in HBS Na (Sigma) for 30 min before the media was replaced with HBS KV. […] Mitochondrial Membrane Potential (MMP) Assay: MMP was determined using the potentiometric probe, JC-1. JC-1 (Molecular Probes) is a cationic carbocyanine dye that selectively accumulates in polarized mitochondria, where it forms red fluorescent aggregates (excitation 485/emission 590 nm). Upon mitochondrial depolarization, JC-1 is released into the cytosol, whereas a monomer emits green fluorescence (excitation 485 nm/emission 520 nm). Therefore, MMP variations were monitored as the ratio of fluorescent emissions at 590/520 nm using a fluorimeter plate reader (Fluoroskan Ascent Labsystem). HL-1 cells were incubated with JC-1 (1.5 μM) for 30 min at 37° C. in HBS Na before treatment protocols.

[8] = Ca2+ overload in HBS KV medium, 5 mM EGTA in incubation media
[9] = Calcimycin 1 μM in HBS KV medium, dose-dependent response

For `O=C(O)CN(CCOCCOCCN(CC(=O)O)CC(=O)O)CC(=O)O` [EGTA], the CAPN1 activation [1, 8] was “attenuated” and the “cell death (LDH release)” value [2, 8] was “attenuated”.
In the case of “QSVGVSSGKLLIKLKDGRKVETDHI [AIF (370-394), Linear peptide, 25 amino acids long]”, the Kd [3] is given as 12 µM.
For `CC[C@H](C)[C@@H]1NC(=O)[C@@H](N)CSSC[C@@H](C(N)=O)NC(=O)[C@H](C(C)C)NC(=O)[C@H](CCCCNC(=N)N)NC(=O)[C@H](CCCNC(=N)N)NC(=O)CNC(=O)[C@H](CC(=O)O)NC(=O)[C@H](CCCCN)NC(=O)[C@H](CC(C)C)NC(=O)[C@H](CCCCN)NC1=O` [X8: hR] (H-CIKLKDGR[hArg]VC-NH2; disulfide 1-11), the Kd [4] was > 1000 µM.
In the case of `CC[C@H](C)[C@@H]1NC(=O)[C@@H](N)CSSC[C@@H](C(N)=O)NC(=O)[C@H](C(C)C)NC(=O)[C@H](CCCCN)NC(=O)[C@H](CCCNC(=N)N)NC(=O)CNC(=O)[C@H](CC(=O)O)NC(=O)[C@H](CCCCNC(=N)N)NC(=O)[C@H](CC(C)C)NC(=O)[C@H](CCCCN)NC1=O` [X4: hR] (H-CIKL[hArg]DGRKVC-NH2; disulfide 1-11), the Kd [4] is reported as > 1000 µM.
In the case of `O=C(O)/C(S)=C/c1ccc(I)cc1` [PD150606], the “reduction in Ca2+ overload-induced CAPN1 substrate hydrolysis” value [1, 9] is reported as ~60%, the “kinetics of cytosolic Ca2+ accumulation” value [5] is reported as “neither of them had an impact” and the “reduction in cell death (LDH release)” value [2, 9] is reported as ~15%. For the same compound, the “mitochondrial CAPN1 translocation” value [6] was “failed to prevent” and the “Ca2+ overload-induced decrease in mitochondrial membrane potential (MMP)” value [7] was “reduced ability to restore MMP”.
